Ki data for two compounds are collected here from ChEMBL document CHEMBL3639083, “6,7-unsaturated-7-carbamoyl substituted morphinan derivative” (2013).

By Ki is commonly meant the equilibrium dissociation constant of an inhibitor or competing ligand from its target.

The target of experiment [1] is Delta-type opioid receptor (Rattus norvegicus, UniProt P33533). The experiment is described as follows: (§1) Binding Assay: Binding assay of opioid receptor.
Experiment [2] deals with Mu-type opioid receptor (Rattus norvegicus, UniProt P33535). Described as §1.
Sequence of Mu-type opioid receptor (P33535 whole entry): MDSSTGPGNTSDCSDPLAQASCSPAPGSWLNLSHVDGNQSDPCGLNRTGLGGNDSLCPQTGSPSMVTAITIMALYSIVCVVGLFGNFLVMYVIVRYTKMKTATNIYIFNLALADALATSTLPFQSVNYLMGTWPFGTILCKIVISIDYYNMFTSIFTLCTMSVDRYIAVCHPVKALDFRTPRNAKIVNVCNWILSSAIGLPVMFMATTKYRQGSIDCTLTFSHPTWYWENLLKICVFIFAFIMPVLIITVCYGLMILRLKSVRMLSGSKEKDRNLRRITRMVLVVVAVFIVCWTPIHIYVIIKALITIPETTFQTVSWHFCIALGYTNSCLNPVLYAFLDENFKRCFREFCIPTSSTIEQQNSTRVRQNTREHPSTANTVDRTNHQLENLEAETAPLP

Sequence of Delta-type opioid receptor (P33533 whole entry): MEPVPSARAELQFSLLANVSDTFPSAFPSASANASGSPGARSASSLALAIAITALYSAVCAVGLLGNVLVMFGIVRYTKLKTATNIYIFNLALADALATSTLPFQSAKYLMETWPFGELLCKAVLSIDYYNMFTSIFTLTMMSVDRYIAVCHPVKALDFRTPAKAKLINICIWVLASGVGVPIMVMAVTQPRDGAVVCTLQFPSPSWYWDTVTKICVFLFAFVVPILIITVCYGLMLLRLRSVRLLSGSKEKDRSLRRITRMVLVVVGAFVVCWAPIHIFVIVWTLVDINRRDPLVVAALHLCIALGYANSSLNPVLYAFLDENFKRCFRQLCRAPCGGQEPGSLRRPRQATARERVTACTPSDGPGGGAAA

For the compound `COc1ccc(NC(=O)C2=C(O)[C@@H]3Oc4c(O)ccc5c4[C@@]34CCN(CC3CC3)[C@H](C5)[C@]4(O)C2)cn1`, the Ki in experiment [1] amounted to 27.6 nM; in experiment [2], 2.29 nM.

As to `CC(C)NC(=O)C1=C(NS(=O)(=O)c2ccc(Cl)cc2)[C@@H]2Oc3c(O)ccc4c3[C@@]23CCN(CC2CC2)[C@H](C4)[C@]3(O)C1`, the values for the Ki in experiment [1] and in experiment [2] were 0.56 nM and 11 nM, respectively.
